# Data published in patent US9695155B2, “Herbicidal substituted pyrimidinyloxy benzene compounds” (E. I. DU PONT DE NEMOURS AND COMPANY, priority 2013, dated 2017).
# Key:
# [1] = system: large (Lg) crabgrass; test: Test A preemergence; format: in vivo, Digitaria sanguinalis
# Outline: (§1)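 Greenhouse pot test, loam/sand soil. Formulation: non-phytotoxic solvent mix plus surfactant. Pre: directed spray onto soil after sowing. Post: plants at 1–2 leaf, 2–10 cm. Rated visually vs untreated controls at ~10 d, 0 (no effect) to 100 (complete control).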
# [2] = system: corn; test: Test C postemergence; format: in vivo, Zea mays; details: Zea mays, post-emergence
# Outline: (§2)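 Plants were kept under greenhouse conditions for 13–15 days following spray. Pre-emergent application went to soil (loam–sand), post-emergent to foliage at 1–4 leaves. Evaluation: visual, percent control against untreated checks.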
# [3] = system: johnsongrass; test: Test C preemergence; format: in vivo, Sorghum halepense; details: Sorghum halepense, pre-emergence
# Outline: as §2
# [4] = system: corn; test: Test A postemergence; format: in vivo, Zea mays; details: Zea mays, post-emergence, 240 h
# Outline: as §1
# [5] = system: giant foxtail; test: Test C postemergence; format: in vivo, Setaria faberii; details: Setaria faberi, post-emergence
# Outline: as §2
# [6] = system: large (Lg) crabgrass; test: Test C postemergence; format: in vivo, Digitaria sanguinalis; details: Digitaria sanguinalis, post-emergence
# Outline: as §2
# [7] = system: corn; test: Test C preemergence; format: in vivo, Zea mays; details: Zea mays, pre-emergence
# Outline: as §2
# [8] = system: wheat, winter; test: Test C postemergence; format: in vivo, Triticum aestivum
# Outline: as §2
# [9] = system: wheat, winter; test: Test C preemergence; format: in vivo, Triticum aestivum; details: Triticum aestivum, pre-emergence
# Outline: as §2
# [10] = system: Italian ryegrass; test: Test C preemergence; format: in vivo, Lolium multiflorum; details: Lolium multiflorum, pre-emergence
# Outline: as §2
# [11] = system: johnsongrass; test: Test C postemergence; format: in vivo, Sorghum halepense
# Outline: as §2
# [12] = system: barnyardgrass; test: Test A postemergence; format: in vivo, Echinochloa crus-galli; details: Echinochloa crus-galli, post-emergence, 240 h, read-out: Plant response rating, Barnyardgrass
# Outline: as §1
# [13] = system: yellow nutsedge; test: Test C preemergence; format: in vivo, Cyperus esculentus; details: Cyperus, pre-emergence
# Outline: as §2
# [14] = system: yellow nutsedge; test: Test C postemergence; format: in vivo, Cyperus esculentus
# Outline: as §2
# [15] = system: velvetleaf; test: Test A postemergence; format: in vivo, Abutilon theophrasti; details: Abutilon theophrasti, post-emergence, 240 h, read-out: Plant response rating, Velvetleaf
# Outline: as §1
# [16] = 125 g ai/ha, 0 to 100 scale, 0 no effect, 100 complete control
# [17] = 500 g ai/ha, 0 to 100 scale where 0 is no effect and 100 is complete control
# [18] = 31 g ai/ha, postemergence, visual rating, scale 0 to 100 (0 no effect, 100 complete control), 13 to 15 days
smiles,measurement,setting,value
"N#Cc1cccc(Oc2ncc(Cl)cn2)c1-n1cc(OCC(F)(F)F)cn1 [Compound 274, 3-[(5-chloro-2-pyrimidinyl)oxy]-2-[4-(2,2,2-trifluoroethoxy)-1H-pyrazol-1-yl]benzonitrile]","Crabgrass, Large plant response rating (0 to 100 scale)",[1]; 125 g ai/ha,100
same,pest or weed control at 500 g/ha,"[1]; Digitaria sanguinalis, pre-emergence, 240 h, 500 g ai/ha, 0 to 100 scale where 0 is no effect and 100 is complete control, read-out: Crabgrass, Large plant response rating",100%
same,plant injury at 16 g/ha,"[2]; 16 g ai/ha, postemergence, 0 is no effect, 100 is complete control, read-out: Plant response rating (0 to 100), Corn",5%
same,plant injury at 31 g/ha,"[2]; 31 g ai/ha, postemergence, visual rating, scale 0 to 100 (0 no effect, 100 complete control), 13 to 15 days, read-out: Corn plant response rating",10%
same,"Corn plant response rating (crop injury, 0 = no effect, 100 = complete kill) at 125 g/ha","[2]; 125 g ai/ha, postemergence, visual rating, scale 0 to 100 (0 no effect, 100 complete control)",15%
same,"Corn plant response rating (crop injury, 0 = no effect, 100 = complete kill) at 62 g/ha","[2]; Postemergence, 62 g ai/ha, scale 0 to 100 (0 no effect, 100 complete control), 13 to 15 days",10%
same,pest or weed control at 16 g/ha,"[3]; 16 g ai/ha, preemergence, scale 0 to 100 (0 no effect, 100 complete control), read-out: Johnsongrass plant response rating",10%
same,pest or weed control at 125 g/ha,"[3]; 125 g ai/ha, preemergence, scale 0 (no effect) to 100 (complete control), read-out: Johnsongrass plant response rating",98%
same,pest or weed control at 62 g/ha,"[3]; Preemergence, 62 g ai/ha, scale 0 to 100, 0 no effect, 100 complete control, read-out: Plant response rating, Johnsongrass",95%
same,"Corn plant response rating (crop injury, 0 = no effect, 100 = complete kill) at 125 g/ha",[4]; [16],80%
same,"Corn plant response rating (crop injury, 0 = no effect, 100 = complete kill) at 500 g/ha",[4]; [17],90%
same,pest or weed control at 16 g/ha,"[5]; 16 g ai/ha, postemergence, 0 is no effect, 100 is complete control, read-out: Plant response rating (0 to 100), Foxtail, Giant",5%
same,pest or weed control at 31 g/ha,"[5]; 31 g ai/ha, postemergence, visual rating, scale 0 to 100 (0 no effect, 100 complete control), 13 to 15 days, read-out: Foxtail, Giant plant response rating",10%
same,pest or weed control at 125 g/ha,"[5]; 125 g ai/ha, postemergence, visual rating, scale 0 to 100 (0 no effect, 100 complete control), read-out: Plant response rating, Foxtail, Giant",60%
same,pest or weed control at 62 g/ha,"[5]; Postemergence, 62 g ai/ha, scale 0 to 100 (0 no effect, 100 complete control), 13 to 15 days, read-out: Plant response rating, Foxtail, Giant",10%
same,pest or weed control at 16 g/ha,"[6]; 16 g ai/ha, postemergence, 0 is no effect, 100 is complete control, read-out: Plant response rating (0 to 100), Crabgrass, Large",5%
same,pest or weed control at 31 g/ha,"[6]; 31 g ai/ha, postemergence, visual rating, scale 0 to 100 (0 no effect, 100 complete control), 13 to 15 days, read-out: Crabgrass, Large plant response rating",5%
same,pest or weed control at 125 g/ha,"[6]; 125 g ai/ha, postemergence, visual rating, scale 0 to 100 (0 no effect, 100 complete control), read-out: Plant response rating, Crabgrass, Large",60%
same,pest or weed control at 62 g/ha,"[6]; Postemergence, 62 g ai/ha, scale 0 to 100 (0 no effect, 100 complete control), 13 to 15 days, read-out: Plant response rating, Crabgrass, Large",30%
same,plant injury at 16 g/ha,"[7]; 16 g ai/ha, preemergence, scale 0 to 100 (0 no effect, 100 complete control), read-out: Corn plant response rating",5%
same,plant injury at 125 g/ha,"[7]; 125 g ai/ha, preemergence, scale 0 (no effect) to 100 (complete control), read-out: Corn plant response rating",80%
same,"Corn plant response rating (crop injury, 0 = no effect, 100 = complete kill) at 62 g/ha","[7]; Preemergence, 62 g ai/ha, scale 0 to 100, 0 no effect, 100 complete control",85%
same,Wheat plant response rating,[8]; [18],5
same,plant injury at 16 g/ha,"[8]; Triticum aestivum, post-emergence, 16 g ai/ha, postemergence, 0 is no effect, 100 is complete control, read-out: Plant response rating (0 to 100), Wheat",5%
same,plant injury at 125 g/ha,"[8]; Triticum aestivum, post-emergence, 125 g ai/ha, postemergence, visual rating, scale 0 to 100 (0 no effect, 100 complete control), read-out: Plant response rating, Wheat",15%
same,plant injury at 62 g/ha,"[8]; Triticum aestivum, post-emergence, Postemergence, 62 g ai/ha, scale 0 to 100 (0 no effect, 100 complete control), 13 to 15 days, read-out: Plant response rating, Wheat",5%
same,plant injury at 16 g/ha,"[9]; 16 g ai/ha, preemergence, scale 0 to 100 (0 no effect, 100 complete control), read-out: Wheat plant response rating",20%
same,plant injury at 125 g/ha,"[9]; 125 g ai/ha, preemergence, scale 0 (no effect) to 100 (complete control), read-out: Wheat plant response rating",90%
same,plant injury at 62 g/ha,"[9]; Preemergence, 62 g ai/ha, scale 0 to 100, 0 no effect, 100 complete control, read-out: Plant response rating, Wheat",90%
same,pest or weed control at 16 g/ha,"[10]; 16 g ai/ha, preemergence, scale 0 to 100 (0 no effect, 100 complete control), read-out: Ryegrass, Italian plant response rating",25%
same,pest or weed control at 125 g/ha,"[10]; 125 g ai/ha, preemergence, scale 0 (no effect) to 100 (complete control), read-out: Ryegrass, Italian plant response rating",90%
same,pest or weed control at 62 g/ha,"[10]; Preemergence, 62 g ai/ha, scale 0 to 100, 0 no effect, 100 complete control, read-out: Plant response rating, Ryegrass, Italian",90%
same,Johnsongrass plant response rating,[11]; [18],5
same,pest or weed control at 16 g/ha,"[11]; Sorghum halepense, post-emergence, 16 g ai/ha, postemergence, 0 is no effect, 100 is complete control, read-out: Plant response rating (0 to 100), Johnsongrass",5%
same,pest or weed control at 125 g/ha,"[11]; Sorghum halepense, post-emergence, 125 g ai/ha, postemergence, visual rating, scale 0 to 100 (0 no effect, 100 complete control), read-out: Plant response rating, Johnsongrass",10%
same,pest or weed control at 62 g/ha,"[11]; Sorghum halepense, post-emergence, Postemergence, 62 g ai/ha, scale 0 to 100 (0 no effect, 100 complete control), 13 to 15 days, read-out: Plant response rating, Johnsongrass",5%
same,pest or weed control at 125 g/ha,[12]; [16],90%
same,pest or weed control at 500 g/ha,[12]; [17],100%
same,pest or weed control at 16 g/ha,"[13]; 16 g ai/ha, preemergence, scale 0 to 100 (0 no effect, 100 complete control), read-out: Nutsedge, Yellow plant response rating",20%
same,pest or weed control at 125 g/ha,"[13]; 125 g ai/ha, preemergence, scale 0 (no effect) to 100 (complete control), read-out: Nutsedge, Yellow plant response rating",95%
same,pest or weed control at 62 g/ha,"[13]; Preemergence, 62 g ai/ha, scale 0 to 100, 0 no effect, 100 complete control, read-out: Plant response rating, Nutsedge, Yellow",85%
same,"Nutsedge, Yellow plant response rating",[14]; [18],5
same,pest or weed control at 16 g/ha,"[14]; Cyperus, post-emergence, 16 g ai/ha, postemergence, 0 is no effect, 100 is complete control, read-out: Plant response rating (0 to 100), Nutsedge, Yellow",10%
same,pest or weed control at 125 g/ha,"[14]; Cyperus, post-emergence, 125 g ai/ha, postemergence, visual rating, scale 0 to 100 (0 no effect, 100 complete control), read-out: Plant response rating, Nutsedge, Yellow",10%
same,pest or weed control at 62 g/ha,"[14]; Cyperus, post-emergence, Postemergence, 62 g ai/ha, scale 0 to 100 (0 no effect, 100 complete control), 13 to 15 days, read-out: Plant response rating, Nutsedge, Yellow",20%
same,pest or weed control at 125 g/ha,[15]; [16],100%
same,pest or weed control at 500 g/ha,[15]; [17],100%
